The test system of data set [1] is L. amazonensis promastigotes. The data set can be described thus: Mitochondrial superoxide (MitoSOX Red). To be noted: for increase in mitochondrial superoxide: 6 h. Type of data set: cell-based, Leishmania amazonensis. The procedure:
(§1) To measure ROS and mitochondrial ROS (superoxide) levels, L. amazonensis promastigotes (5 × 10^6 cells) were exposed to compound 7 (1.25 and 2.50 μM) for 6 and 24 h, following the methodology described by da Trindade Granato et al. ([2018]). Before the incubation, cells were washed with PBS and stained with 1 mM H2DCFDA (Invitrogen, Waltham, MA, USA) to measure total ROS. Fluorescence was measured after a 30‐min incubation with the dye using a fluorimeter (FLx800, BioTek Instruments Inc., Winooski, VT, USA) at an excitation/emission wavelength of 485/528 nm. As a positive control, cells were treated with 62.5 μM H2O2. To quantify mitochondrial superoxide, the MitoSOX Red indicator (Invitrogen, Molecular Probes, Eugene, Oregon, USA) was employed. Leishmania amazonensis promastigotes were treated with compound 7 (1.25 and 2.50 μM) for 6 and 24 h at 25°C. Cells were labeled with MitoSOX Red indicator at 5 μM and incubated for 20 min. Promastigotes incubated with antimycin A (10 μM) were used as the positive control. Fluorescence intensity was evaluated in a spectrofluorometer (FLx800, BioTek Instruments Inc., Winooski, VT, USA) at 540/600 nm of excitation/emission, respectively.

Data set [2] in a line: Cytotoxicity against mammalian cells (MTT). Format: cell-based, BALB/c mice. To be noted: BALB/c, mouse; peritoneal murine macrophages, 72 h, MTT. The procedure: (§2) After being prepared as previously mentioned, murine peritoneal macrophages obtained from BALB/c mice were either left untreated (negative control) or treated with the compounds (3.125–100.000 μM). Using a spectrophotometer (Multiskan EX, Thermo Electron Corporation, Vantaa, Finland) set to 570 nm, cell viability was assessed after 72 h of treatment using the MTT method (Mosmann [1983]). A cytotoxic concentration for 50% of the cell population (CC50) was used to express the results. The reference medication was miltefosine (Cayman Chemical Company, Ann Arbor, MI, USA). The assays were performed in three independent experiments in duplicate. The selectivity index was calculated by […].

For data set [3], the system named is peritoneal murine macrophages. Put plainly: Cytotoxicity against mammalian cells (MTT). The following applies: comparator from Meinel et al. [2020]. Type of data set: cell-based, BALB/c mice. The procedure: as §2
Data set [4] has as its system L. amazonensis promastigotes. The data set can be described thus: Cell membrane integrity (propidium iodide). Type of data set: cell-based, Leishmania amazonensis. The following applies: 24 h, 1.25 and 2.50 μM. The procedure:
To evaluate cell membrane integrity, L. amazonensis promastigotes (5 × 10^6 cells) were treated with compound 7 (1.25 and 2.50 μM) for 24 h. After incubation, the cells were washed with PBS and stained with 0.20 μg/mL of propidium iodide (PI) (Sigma‐Aldrich, St. Louis, MO, USA) (da Trindade Granato et al. [2018]). Following a 15‐min incubation with PI, fluorescence was measured using a fluorimeter (FLx800) at an excitation/emission wavelength of 540/600 nm. Cells exposed to heat at 65°C for 10 min were used as a positive control.

The test system of a further data set is human erythrocytes. The data set can be described thus: Cytotoxicity in human red blood cells (hemolytic assay). Format: cell-based. The following applies: 24 h, 0.09–200.00 μM. The procedure:
(§3) Blood cells were centrifuged at 1500 rpm, the plasma and leukocytes were discarded, and the erythrocytes were washed in PBS. Then, the cells were diluted to a concentration of 1%, plated in 96‐well plates, and untreated or treated with the compound 7 at different concentrations (0.09–200.00 μM). The plate was incubated for 24 h at 37°C, and then centrifuged at 2000 rpm for 1 min. The supernatant was collected, and the absorbance (Abs) was determined in a spectrophotometer (Multiskan EX, Thermo Electron Corporation, Vantaa, Finland) at 540 nm. Untreated cells were considered the negative control. For the positive control, 0.2% saponin in deionized water was used.

Test in data set [5]: as above
To be noted: human erythrocytes (1% suspension), 200.00 μM (maximum concentration tested). Type of data set: cell-based. The procedure: as §3

Data set [6] concerns L. amazonensis promastigotes. Put plainly: Mitochondrial membrane potential (JC-1). To be noted: for mitochondrial membrane hyperpolarization: 24 h. Type of data set: cell-based, Leishmania amazonensis. The procedure:
To evaluate mitochondrial membrane potential (MMP), L. amazonensis promastigotes (5 × 10^6 cells) were exposed to compound 7 (1.25 μM and 2.50 μM) for 6 and 24 h. After incubation, the cells were washed with PBS and stained with 5.00 μM JC‐1 (Coimbra et al. [2019]). After a 40‐min incubation with JC‐1, the cells were washed with Hank's solution, and fluorescence was measured using a fluorimeter (FLx800, BioTek Instruments Inc., Winooski, VT, USA) at excitation/emission wavelengths of 485/528 nm and 540/600 nm to detect fluorescence from monomers and J‐aggregates, respectively. As a positive control, cells were treated with 10.00 μM FCCP (Sigma‐Aldrich, St. Louis, MO, USA). MMP was assessed by calculating the ratio of fluorescence emitted by J‐aggregates to that of monomers.

The subject of data set [7] is L. amazonensis promastigotes. The data set can be described thus: Activity against promastigotes of L. amazonensis (MTT). Type of data set: cell-based. To be noted: Leishmania amazonensis, 72 h, read-out: Promastigote IC50. The procedure:
Promastigotes of L. amazonensis (IFLA/BR/67/PH8) were cultivated in brain heart infusion ([…] José dos […], Brazil) supplemented with bovine hemin (Sigma-Aldrich, St. Louis, MO, USA), folic acid (Sigma-Aldrich, St. Louis, MO, USA), inactivated fetal bovine serum (Cultilab, São Paulo, Brazil), and penicillin/streptomycin solution (Sigma-Aldrich, St. Louis, MO, USA). The cells were kept at 25°C in a BOD incubator. […] Louis, MO, USA; Mosmann [1983]). The viability of parasites was measured using a spectrophotometer (Multiskan EX-Thermo Electron Corporation, Vantaa, Finland) at 570 nm. The values were expressed as an inhibitory concentration capable of inhibiting 50% (IC50) of cell growth by using GraFit 5 software (Erithacus Software Ltda). […] Paulo, SP, Brazil) were used as reference drugs. All assays were run in triplicate across three separate trials.

Data set [8] has as its system L. amazonensis intracellular amastigotes. The data set can be described thus: Activity against intracellular amastigote forms of L. amazonensis in peritoneal macrophages (Giemsa counting). Type of data set: cell-based, Leishmania amazonensis. The procedure:
Peritoneal macrophages were obtained from BALB/c mice previously inoculated with 3% thioglycollate medium (da Trindade Granato et al. [2018]). The macrophages (2 × 10^6 cells/mL) were then allowed to adhere in 24‐well culture plates for 16 h at 37°C in a 5% CO2 atmosphere. After rinsing with phosphate‐buffered saline (PBS), the adhered macrophages were infected with stationary‐phase promastigotes of L. amazonensis at a 10:1 parasite‐to‐macrophage ratio for 4 h at 33°C. After several washes to remove non‐adherent promastigotes, the cells were either left untreated (negative control) or treated with the compounds (3.125–100.000 μM). Following a 72 h treatment period, the infected macrophages were fixed in ethanol, stained with Giemsa, and 200 macrophages were counted to determine the number of intracellular amastigotes. The GraFit software was used to determine the IC50, which was the outcome of three separate trials conducted in duplicate.

Data set [9] concerns L. amazonensis promastigotes. Put plainly: Total ROS production (H2DCFDA). Type of data set: cell-based, Leishmania amazonensis. The procedure:
as §1

“Also recorded” adds a separate entry of the source.

One may read the CC50 as the concentration giving 50% cytotoxicity. The term IC50 denotes the concentration that inhibits the measured activity by half.

Regarding `CCCCCCCCn1cc(COC(=O)c2ccccc2O)[n+](C)n1.[I-]` [Compound 7, 1‐Octyl‐4‐(((2‐Hydroxybenzoyl)oxy)methyl)‐3‐Methyl‐1H‐1,2,3‐Triazol‐3‐Ium Iodide], the entries for the “increase in mitochondrial superoxide” value in data set [1] (2× IC50 value (2.50 μM)) and in data set [1] (IC50 value (1.25 μM)) were 62.54% and 57.68%, respectively. In data set [1] (24 h, 1.25 and 2.50 μM), the “mitochondrial superoxide levels (in words)” value was “no alteration”. The same compound had a 50% cytotoxic concentration (CC50) at 72 h in data set [2] of 111 ± 34.5 µM. In data set [3], the “fold lower cytotoxicity compared to the 4-hydroxy-substituted precursor previously described” value is 3.8 fold. For the same compound, the “membrane integrity, PI staining (in words)” value in [4] is “unaffected; also recorded: no significant alterations”. Further, the “hemolytic effect (in words)” value with human erythrocytes is listed as “no hemolytic effect”. Moreover, the hemolysis at 24 h, 200 µM in data set [5] was 3.82%. Moreover, the “mitochondrial membrane potential (in words)” value in data set [6] (6 h, 1.25 and 2.50 μM) is “no change; also recorded: without alterations”. Further, the results for the mitochondrial membrane hyperpolarization in [6] (2× IC50 value (2.50 μM)) and in data set [6] (IC50 value (1.25 μM)) were 29.66% and 22.00%, respectively. Moreover, the IC50 in data set [7] stood at 1.26 ± 0.27 µM; in data set [8] (Leishmania amazonensis, Peritoneal macrophage, intracellular amastigotes in murine peritoneal macrophages, 72 h), 6.23 ± 0.35 µM. Besides, in data set [8] (CC50 of peritoneal murine macrophages/IC50 L. amazonensis amastigotes), the “SI (Selectivity Index)” value is given as 17.81. The “increase in total ROS” value in data set [9] (6 h, 2× IC50 value (2.50 μM)) is reported as 56.54%; in data set [9] (6 h, IC50 value (1.25 μM)) it was 62.81%; in data set [9] (24 h, 2× IC50 value (2.50 μM)) it was 77.03%; in data set [9] (24 h, IC50 value (1.25 μM)), 79.87%.

For the origin of these results see paper PMC12723204, “Mitochondrial Dysfunction Induced by a Novel Salicylate‐Based 1,2,3‐Triazole Salt With Potent Antileishmanial Activity” (Chemical Biology & Drug Design, 2025).
